Test results reported in US9642845B2, “Method for alleviating side effects of retinoic acid therapy and/or improving efficacy without interfering with efficacy” (University of Kentucky Research Foundation, priority 2007, dated 2017).

Experiments:
photodamaged skin [1] = test: Stratum corneum thickness of periorbital punch biopsies, clinical study; type: in vivo, human
Procedure: (§1) A clinical study was conducted to examined the combined use of retinoic acid therapy with myristyl nicotinate (MN), a lipophilic derivative of niacin that enhances skin barrier function, in subjects with mild to moderate facial photodamage.
All subjects selected for the study were female, between the ages of 30 and 60, with a score of I to IV on the Fitzpatrick Skin Classification, mild to moderate photodamaged skin as defined by a modified Glogau Classification of I to II, and with presence of dyschromia on the face as determined by a woods light visual scan.
The subjects were randomly assigned to one of three groups of 20 subjects each. One month prior to the initiation of retinoic acid therapy, one of the groups (group 3) began to apply to the entire face, both night and morning, a formulation containing 5% myristyl nicotinate. Groups 1 and 2 applied, in the same manner, a placebo formulation in which myristyl myristate replaced myristyl nicotinate. […]
Accordingly, periorbital biopsy samples obtained from study subjects were evaluated for stratum corneum thickness. A board certified dermatologist collected a 2-mm punch biopsy from the right or left side of the face as determined by a randomization design of 7 randomly selected subjects from each group at baseline and after 12 weeks of treatment. […]
Histological images were taken of the H&E stained cross sections with an Olympus inverted stage microscope using a 10× by 0.45 Apochromat objective and a Nikon digital CCD camera. […] Suprapapillary epidermal thickness (as measured from the top of the dermal papilla to the top of the granular layer) and stratum corneum thickness (as measured from the top of the granular layer to the top of the stratum corneum) were measured. For each specimen, five different sites were measured and the average was calculated.

photodamaged skin [2] = test: Rates of transepidermal water loss (TEWL), right cheek, Dermalab; type: in vivo, human; settings: for change from baseline in mean rates of TEWL: 12 weeks
Procedure: as §1
(§2) The subjects were randomly assigned to one of three groups of 20 subjects each. One month prior to the initiation of retinoic acid therapy, one of the groups (group 3) began to apply to the entire face, both night and morning, a formulation containing 5% myristyl nicotinate. Groups 1 and 2 applied, in the same manner, a placebo formulation in which myristyl myristate replaced myristyl nicotinate. Upon initiation of retinoic acid therapy (baseline), group 1 (placebo/placebo+RA) continued to use the placebo formulation as above, group 2 (placebo/MN+RA) initiated use of the 5% myristyl nicotinate formulation and group 3 (MN/MN+RA) continued to use the 5% myristyl nicotinate formulation. Retinoic acid therapy involved a 0.025% concentration of the drug applied at night, immediately following application of the placebo or myristyl nicotinate containing formulations. This strength of retinoic acid was chosen for this study as the subjects had mild to moderate photodamage.
Determination of rates of TEWL provides a non-invasive assessment of relative skin barrier function. […] For the TEWL measurements, the instruments required a specified temperature and humidity range for optimal function, thus subjects were required to equilibrate to ambient conditions for at least 20 min prior to measurements. Temperature was maintained between 66 and 72° F. and relative humidity maintained between 15 and 55%. A computer-linked Dermalab instrument was used to measure TEWL at two points above the skin surface on the right cheeks of study subjects and the rate of water loss was calculated. Each TEWL measurement was averaged over a one-min measurement period.

photodamaged skin [3] = test: Clinical grading of tolerability (irritation/safety parameters); type: in vivo, human
Procedure: as §1, §2
(§3) In order to assess both the tolerability and efficacy of retinoic acid therapy, subjects also were clinically graded on the right and/or left side of the face for efficacy/performance parameters and irritation/safety parameters at baseline, and weeks 2, 4, 8, and 12.
The most severe parameters of tolerability such as scaling/peeling and degree of erythema were graded on 3-point clinical scale at weeks 2, 4, 8, and 12, and mean values were determined. The frequency of less severe parameters of tolerability typical of retinoic acid therapy (including tightness/dryness, stinging, burning, and tingling) was also evaluated.

photodamaged skin [4] = test: Suprapapillary epidermal thickness of periorbital punch biopsies; type: in vivo, human; settings: for increase in epidermal thickness: 12 weeks
Procedure: as §1, §2
Accordingly, periorbital biopsy samples obtained from study subjects were evaluated for stratum corneum thickness. A board certified dermatologist collected a 2-mm punch biopsy from the right or left side of the face as determined by a randomization design of 7 randomly selected subjects from each group at baseline and after 12 weeks of treatment. The punch biopsies were formalin-fixed, embedded in paraffin, cut into 5 μm cross-sections, mounted on slides, and stained with hematoxylin-eosin (H&E).
Histological images were taken of the H&E stained cross sections with an Olympus inverted stage microscope using a 10× by 0.45 Apochromat objective and a Nikon digital CCD camera. ImageJ image analysis software (NIH) was used to examine the images and perform measurements. Suprapapillary epidermal thickness (as measured from the top of the dermal papilla to the top of the granular layer) and stratum corneum thickness (as measured from the top of the granular layer to the top of the stratum corneum) were measured. For each specimen, five different sites were measured and the average was calculated.
Since long term retinoid therapy is associated with an increase in epidermal thickness, changes in epidermal thickness in each of the groups over the 12-week course of the retinoic acid therapy were also assessed. The mean values for the placebo/placebo+RA, placebo/MN+RA, and MN/MN+RA groups at the baseline were 37.9, 38.8, and 39.3 μm, respectively. […]

caspase 14 = test: Caspase 14 expression in study subjects; type: in vivo, human
Excerpt: (§4) To investigate this, the levels of expression of both caspase 14 and filaggrin were investigated in the groups of subjects referred to supra, (i.e., subjects who received placebo alone for one month, then placebo plus retinoic acid, and those who received placebo only for one month and then myristyl nicotinate and retinoic acid during the treatment phase.

filaggrin = test: Filaggrin expression in study subjects; type: in vivo, human
Excerpt: as §4

photodamaged skin [5] = test: Clinical grading of efficacy (dyschromia, fine lines, wrinkles, tactile roughness, temple laxity); type: in vivo, human; settings: for grading of temple laxity vs placebo/placebo+RA: 12 weeks
Procedure: as §1, §2, §3
Clinical grading involved evaluation of dyschromia, fine lines, shallow wrinkles, tactile roughness, and temple laxity as a function of treatment time (at weeks 2, 4, 8, and 12).

photodamaged skin [6] = settings: 5% myristyl nicotinate for 3 months, previous studies; cited from earlier work
[7] = MN/MN+RA group (prior and concurrent MN)

## CC1=C(/C=C/C(C)=C/C=C/C(C)=C/C(=O)O)C(C)(C)CCC1 [retinoic acid, All-trans-retinoic acid]
Photodamaged skin [1]; placebo/placebo+RA group, 12 weeks of 0.025% retinoic acid therapy, p=0.006 vs. baseline
  reduction in stratum corneum thickness: approximately 24%
Photodamaged skin [2]; placebo/placebo+RA group, 12 week period, p<0.0001
  increase in rates of TEWL: approximately 45%
Photodamaged skin [3]; retinoic acid therapy 0.025%, frequency reported in the study
  frequency of tingling: 2%
Photodamaged skin [4]; retinoic acid and placebo cream, 12 week study
  decrease in mean epidermal thickness: approximately 5%
Caspase 14; placebo plus retinoic acid for 3 months
  average increase in caspase 14 expression: 5%
filaggrin; subjects not treated with myristyl nicotinate (placebo plus retinoic acid)
  change in filaggrin expression: no change

## CCCCCCCCCCCCCCOC(=O)c1cccnc1 [myristyl nicotinate]
Photodamaged skin [1]; MN/MN+RA group at baseline, after one month of 5% myristyl nicotinate, not significant at p<0.05
  higher mean stratum corneum thickness compared to the mean values of the other groups: approximately 11%
Photodamaged skin [1]; concurrent use of 5% myristyl nicotinate and 0.025% retinoic acid, 12 weeks
  change in stratum corneum thickness: did not result in a decrease in stratum corneum thickness
Photodamaged skin [2]; [7]
  change from baseline in mean rates of TEWL: not statistically significant
Photodamaged skin [2]; placebo/MN+RA group (concurrent MN)
  change from baseline in mean rates of TEWL: not statistically significant
Photodamaged skin [3]; [7]
  incidence of tingling: zero
Photodamaged skin [3]; concurrent use of myristyl nicotinate with retinoic acid therapy
  frequency of tightness/dryness, stinging, and burning: decreased
Photodamaged skin [3]; myristyl nicotinate treated subjects on 0.025% retinoic acid, difference not statistically significant
  grading of erythema vs placebo: consistently slightly higher
Photodamaged skin [3]; prior and concurrent myristyl nicotinate use with retinoic acid therapy
  frequency of tightness/dryness, stinging, and burning: further reduced
Photodamaged skin [5]; MN/MN+RA group, p=0.02
  grading of temple laxity vs placebo/placebo+RA: statistically significant greater improvement
Photodamaged skin [5]; MN/MN+RA group, weeks 4 to 12
  tactile roughness scores: consistently showed greater improvement
Photodamaged skin [5]; placebo/MN+RA group, not significant at p<0.05
  grading of temple laxity vs placebo/placebo+RA: trend for greater improvement
Photodamaged skin [4]; MN/MN+RA group at baseline, after one month of 5% myristyl nicotinate
  mean epidermal thickness: 39.3 μm
Photodamaged skin [4]; myristyl nicotinate concurrent with retinoic acid
  increase in epidermal thickness: approximately 3%
Photodamaged skin [4]; myristyl nicotinate prior/concurrent with retinoic acid, p=0.0007 vs placebo/placebo+RA
  increase in epidermal thickness: approximately 10%
Caspase 14; placebo, retinoic acid and myristyl nicotinate for 3 months
  increase in caspase 14 expression: 24%
filaggrin; placebo, myristyl nicotinate and retinoic acid
  average increase in filaggrin expression: 13%
Photodamaged skin [6]
  increase in stratum corneum thickness: more than 50%
